The values below come from patent publication US20040122068A1, “Pramipexole for the treatment of HIV dementia” (Boehringer Ingelheim Pharma GmbH & Co. KG, priority 2002, published 2004).

Experiment [1] deals with isolated mitochondria. The experiment is described as follows: In vitro mitochondria test: H2O2 formation of isolated mitochondria (amplexRed/horseradish peroxidase kinetic test). It is filed as biochemical. Conditions: for Quantity of H2O2 formed: 5 mM succinate alone = 100.0. An excerpt:
A. The Reduced H2O2 Formation of Isolated Mitochondria as In Vitro Parameters for Endogenous Radical Stress:
Mitochondria reduce 95% of the oxygen to water.
Overproduction and/or reduced detoxification of superoxide anion and hydrogen peroxide leads to the development of oxidative stress. This is crucially implicated in neuronal cell death in all kinds of neurodegenerative diseases.
In the presence of the energy substrate succinate, isolated mitochondria produce H2O2, which results from the dismutation of superoxide anion. In the presence of amplexRed™ and horseradish peroxidase, the fluorogenic chromophor resorufin is formed, which is measured and quantified in a kinetic test. The quantity of H2O2 formed by the mitochondria can be increased by the addition of the quinone analogue duroquinone.

Experiment [2] has as its system aconitase. Particulars: mice, oral, 4 days, 2×1 mg/kg/d; brain mitochondria; control (0.9% saline) 100±8%; n=4.
Experimental: Mice (C57BL6) were treated with pramipexole by oral route for 4 days in a dose of 2×1 mg/kg KG/d. The animals were then anaesthetised, killed, their brains were removed and the mitochondria (location of the enzyme and site of the radical formation) were isolated. Then the activity was determined by means of a coupled optical test.

SMILES strings stand for the structures.

Consider `CC1=C(C)C(=O)C(C)=C(C)C1=O` [duroquinone], for which the “Quantity of H2O2 formed” value in experiment [1] (5 mM succinate + 3 μM duroquinone) is reported as 152.2 ± 1.4%.

As for `CCCNC1CCc2nc(N)sc2C1` (stereo not shown) [pramipexole, 2-amino-4,5,6,7-tetrahydro-6-n-propylamino-benzothiazole], the aconitase activity in experiment [2] worked out at 153±16%. For the same compound, the “Quantity of H2O2 formed” value in experiment [1] (5 mM succinate + 3 μM duroquinone + 100 μM pramipexole) was found to be 58.3 ± 24.6%. In experiment [1] (summary of Table 1), the “duroquinone-induced formation of H2O2 reduced to” value is 50-60%.
